Two compounds from US5578445A, “In vitro method of evaluating the effects of a substance” (priority 1991, dated 1996) can be followed below.

Read-outs that look alike come from different tables or passages of the source.

Experiment [1] relates to ZR 75-1. As to the kind of experiment: Proliferation, amount of ATP after 6 days, ZR 75-1. In kind it is cell-based, human. The note with it: for activity at 0.0001 µM: +E2 (0.1 nM), 6 days. On the procedure:
The growth is determined by measuring the amount of ATP in the cells after incubation with ligands for 6 days. […]
Samples of the cells ZR 75-1 (8000 cells/well) and MCF7 (4000 cells/well), respectively, were distributed into microtiter plates having 96 wells.
The following hormone additions were made:
The medium was replaced by fresh medium of the same composition as on day 6, and hormone additions as on day 6.
6 days after hormone addition the number of cells and their morphology were investigated. Medium from each well was poured off. To each well was added 100 μl 1% TCA (trichloro acetic acid).

Experiment [2] relates to MCF7. Nature of the experiment: Proliferation, amount of ATP after 6 days, MCF7. The note with it: for effect on growth: MCF7; for activity at 0.0001 µM: +E2 (0.1 nM).

Turning to `CC/C(=C(\c1ccccc1)c1ccc(OCCN(C)C)cc1)c1ccccc1` [Tam, tamoxifen], the effect on growth entry is on record as “functions as a weak agonist” in experiment [1] (10^-7 M Tamoxifen alone, listed as Tamoxifen); “weak agonistic effect” in experiment [1] (10^-7 M Tamoxifen alone, listed as tamoxifen); “has no effect” in experiment [2] (Tamoxifen alone). Moreover, the activity at 1 µM was 131% in experiment [1] (Homo sapiens, ZR-75-1, 144 h, + 10^-6 M Tam, -E2, 6 days, read-out: relative amount of ATP (no hormone added = 1)) and 94% in experiment [2] (Homo sapiens, MCF7, 144 h, read-out: relative amount of ATP (no hormone added = 1), MCF7, + 10^-6 M Tam, -E2, 6 days). The activity at 0.1 µM worked out at 155% in experiment [1] (Homo sapiens, ZR-75-1, 144 h, + 10^-7 M Tam, -E2, 6 days, read-out: relative amount of ATP (no hormone added = 1)) and 109% in experiment [2] (Homo sapiens, MCF7, 144 h, read-out: relative amount of ATP (no hormone added = 1), MCF7, + 10^-7 M Tam, -E2, 6 days). Further, the activity at 0.01 µM in experiment [1] (Homo sapiens, ZR-75-1, 144 h, + 10^-8 M Tam, -E2, 6 days, read-out: relative amount of ATP (no hormone added = 1)) was found to be 109%; in experiment [2] (Homo sapiens, MCF7, 144 h, read-out: relative amount of ATP (no hormone added = 1), MCF7, + 10^-8 M Tam, -E2, 6 days) it was 122%. The activity at 0.001 µM in experiment [1] (Homo sapiens, ZR-75-1, 144 h, + 10^-9 M Tam, -E2, 6 days, read-out: relative amount of ATP (no hormone added = 1)) was determined as 91%; in experiment [2] (Homo sapiens, MCF7, 144 h, read-out: relative amount of ATP (no hormone added = 1), MCF7, + 10^-9 M Tam, -E2, 6 days), 96%. Further, the “Tamoxifen concentration at which an antagonistic effect can be seen” value in experiment [1] (presence of 0.1 nM E2) is reported as 10^-6 M.
Take `C[C@]12CC[C@@H]3c4ccc(O)cc4CC[C@H]3[C@@H]1CC[C@@H]2O` [E2, estradiol]: the effect on growth result in experiment [1] (0.1 nM E2) and in experiment [2] (0.1 nM E2) was “increase their growth dramatically” throughout. The activity at 0.0001 µM in experiment [1] (Homo sapiens, ZR-75-1, 144 h, No LY 117018 added, Experiment 2, read-out: relative amount of ATP (no hormone added = 1)) turned out to be 468%; in experiment [1] (Homo sapiens, ZR-75-1, 144 h, No Tam added, Experiment 1, read-out: relative amount of ATP (no hormone added = 1)) it was 351%; in experiment [2] (Homo sapiens, MCF7, 144 h, read-out: relative amount of ATP (no hormone added = 1), MCF7, No LY 117018 added, 6 days, Experiment 2), 230%; in experiment [2] (Homo sapiens, MCF7, 144 h, read-out: relative amount of ATP (no hormone added = 1), MCF7, No Tam added, 6 days, Experiment 1), 266%.
